From patent publication US7666391B2, “Breast homing peptides and methods of identifying same using aminopeptidase P” (Burnham Institute for Medical Research, priority 2001, dated 2010)
pKi: −log10 of the molar value. Square brackets hold non-standard residues; d marks the D form. Ends that are not written are not given here. Peptide text beside a SMILES is read from it. * marks the point of attachment. X1 = NC(Cc1ccccc1)C(O)C(=O)*; βAla = NCCC(=O)O

Experiments:
[1] = target: bovine membrane-bound aminopeptidase P; conditions: cited from earlier work; for IC50: 0.5 mM arg = Pro-Pro in 0.1 M Hepes, pH 8.0, triplicate
[2] = target: human membrane-bound aminopeptidase P (Homo sapiens, UniProt O43895); conditions: 0.5 mM arg = Pro-Pro in 0.1 M Hepes, pH 8.0; triplicate; cited from earlier work
Chain of human membrane-bound aminopeptidase P (O43895 22-649): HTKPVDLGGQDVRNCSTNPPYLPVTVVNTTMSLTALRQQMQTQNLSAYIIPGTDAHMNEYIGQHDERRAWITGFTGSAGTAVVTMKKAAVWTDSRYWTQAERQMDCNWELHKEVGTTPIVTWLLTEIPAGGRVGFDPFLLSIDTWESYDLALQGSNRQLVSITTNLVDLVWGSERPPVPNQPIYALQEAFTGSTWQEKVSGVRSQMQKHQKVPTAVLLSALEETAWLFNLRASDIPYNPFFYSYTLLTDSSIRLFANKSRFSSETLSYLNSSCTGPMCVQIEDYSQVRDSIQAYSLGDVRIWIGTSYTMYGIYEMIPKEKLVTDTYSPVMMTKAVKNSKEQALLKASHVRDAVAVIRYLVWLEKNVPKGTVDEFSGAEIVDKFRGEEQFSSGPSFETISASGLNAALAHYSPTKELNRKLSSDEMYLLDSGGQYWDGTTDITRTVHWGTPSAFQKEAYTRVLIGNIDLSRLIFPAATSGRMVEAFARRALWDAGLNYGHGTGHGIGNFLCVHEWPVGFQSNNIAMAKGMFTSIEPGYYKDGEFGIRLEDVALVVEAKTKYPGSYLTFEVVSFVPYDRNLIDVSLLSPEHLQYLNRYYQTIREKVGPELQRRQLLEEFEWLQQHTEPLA

[3] = target: T1, rat membrane-bound aminopeptidase P (Rattus norvegicus, UniProt Q99MA2); conditions: cited from earlier work; for IC50: 0.5 mM arg = Pro-Pro in 0.1 M Hepes, pH 8.0, triplicate
T1 sequence (Q99MA2 23-650): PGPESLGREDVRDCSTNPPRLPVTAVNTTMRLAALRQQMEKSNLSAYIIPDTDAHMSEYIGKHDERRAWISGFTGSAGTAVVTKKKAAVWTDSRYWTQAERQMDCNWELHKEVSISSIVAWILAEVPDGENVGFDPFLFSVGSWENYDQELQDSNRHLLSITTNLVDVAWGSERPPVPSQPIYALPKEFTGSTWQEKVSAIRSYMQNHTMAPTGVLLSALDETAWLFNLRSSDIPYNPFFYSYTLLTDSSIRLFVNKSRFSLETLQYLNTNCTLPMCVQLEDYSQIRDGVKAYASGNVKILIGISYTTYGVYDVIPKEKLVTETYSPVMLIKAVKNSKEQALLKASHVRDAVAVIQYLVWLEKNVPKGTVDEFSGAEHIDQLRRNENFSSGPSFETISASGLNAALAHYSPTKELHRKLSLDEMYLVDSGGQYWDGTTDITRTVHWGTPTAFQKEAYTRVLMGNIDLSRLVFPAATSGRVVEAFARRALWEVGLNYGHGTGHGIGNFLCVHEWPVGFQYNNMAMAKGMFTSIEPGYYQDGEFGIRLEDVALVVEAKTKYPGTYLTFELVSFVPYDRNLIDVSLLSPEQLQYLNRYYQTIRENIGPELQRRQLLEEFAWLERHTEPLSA

[4] = target: monkey membrane-bound aminopeptidase P; conditions: 0.5 mM arg = Pro-Pro in 0.1 M Hepes, pH 8.0; triplicate; cited from earlier work
aminopeptidase P = experiment: Binding of aminopeptidase P cDNA fragment phage to wells coated with […] peptide, with competitors; parameters: species or system human; conditions: 1 mg free peptide; apstatin 10 μg/ml; IgG 10 μg/ml
Experimental: The peptide was synthesized in a Symphony synthesizer (Rainin Instruments; Emeryville, Calif.), cyclized, and purified by HPLC. The peptide was immobilized on a 96 well Reacti-Bind® polystyrene strip plate (Pierce; Rockford, Ill.). The wells were then treated three times×200 μl SuperBlock® blocking buffer (Pierce).
A human breast carcinoma cDNA library on T7 phage obtained from Novagen was amplified in a single step by infecting BLT 5615 bacteria. Phage suspension (100 μl, 10^9 pfu/ml) in PBS was incubated in the wells for one hour; the wells were then washed five times with 200 μl PBS and once with elution buffer (Novagen) to elute phage bound with low and intermediate affinity. Phage bound to the immobilized peptide were subsequently recovered by incubating BLT 5615 bacteria in the wells for 10 minutes at room temperature.

breast tissue [5] = experiment: In vivo blocking of breast homing of phage by co-injected agents; conditions: mice
Experimental: (§1) The number of pfu recovered from each organ is shown.
(§2) In vivo phage selection was performed as described previously with a few modifications. Briefly, mice were anesthetized with avertin and then injected intravenously with 10^9 plaque forming units (pfu) from the CX7C library. Seven minutes after the injection, the mice were perfused through the heart with 10 ml of phosphate buffered saline (PBS). Mammary tissue was then excised, weighed, and homogenized using a Medimachine (Dako, Denmark). The resulting single cells were spun down at 1500 rpm and washed five times with PBS. Phage adherent to the cells were rescued by infecting BL21 bacteria (Novagen), and the phage quantified by plaque assay.

breast tissue [6] = experiment: In vivo phage homing: recovery of injected phage from tissues; parameters: species or system mice; conditions: breast tissue as compared to control pancreatic tissue
Experimental: A CX7C library (10^9 plaque forming units) was injected into the tail vein of mice; after seven minutes, the mice were perfused through the heart, and phage rescued from breast tissue. The rescued phage were then amplified and re-injected in four additional consecutive rounds. The number of plaque forming units (pfu) recovered from breast tissue is shown (black bars). As a control, non-recombinant T7 phage were injected (white bars). In round five, the number of pfu of phage recovered from the pancreas also was determined (gray bar).
as §1
A phage display peptide library with the general structure of CX7C, where C is cysteine and X is any amino acid, was constructed in T7 phage essentially as follows. Briefly, complementary oligonucleotides that encoded the random peptide insert as NNK codons, and had 5′EcoRI and 3′HindIII overhangs, were annealed. The resulting double stranded DNA was phosphorylated with T4 polynucleotide kinase (Novagen; Madison, Wis.) and ligated into 1 ug of T7Select415-1b vector arms. The ligated product was directly added to 50 μl of packaging extract and incubated for two hours, yielding 10^8 pfu total recombinants. The recombinants were amplified in 500 ml of liquid culture. […] (Oxford, U.K.: Oxford University Press), 2001.
as §2

mitochondrial membranes = experiment: Mitochondrial swelling assay; conditions: at a concentration of 10 μM
Source text: In one embodiment, the invention provides a conjugate in which the antimicrobial peptide portion promotes disruption of mitochondrial membranes when internalized by eukaryotic cells. In particular, such an antimicrobial peptide preferentially disrupts mitochondrial membranes as compared to eukaryotic membranes. Mitochondrial membranes, like bacterial membranes but in contrast to eukaryotic plasma membranes, have a high content of negatively charged phospholipids. An antimicrobial peptide can be assayed for activity in disrupting mitochondrial membranes using, for example, an assay for mitochondrial swelling (as described in Example I) or another assay well known in the art. […] An antimicrobial peptide that induces significant mitochondrial swelling at, for example, 50 μM, 40 μM, 30 μM, 20 μM, 10 μM, or less, is considered a peptide that promotes disruption of mitochondrial membranes.

Row | Compound | IC50 [1] | IC50 [3] | other results
1 | C[C@H](NC(=O)[C@@H]1CCCN1C(=O)C1CCCC1S)C(N)=O (single isomer, unassigned) [Compound 11] | 300 µM | 150 µM | IC50 [2]: 390 µM; IC50 [4]: 300 µM
2 | C[C@H](NC(=O)[C@@H]1CCCN1C(=O)C1CCCCC1C(=O)NO)C(N)=O (single isomer, unassigned) [Compound 12] | 50 µM | 37 µM | –
3 | C[C@H](NC(=O)[C@@H]1CCCN1C(=O)[C@@H]1CCCN1C(=O)[C@@H](O)[C@H](N)Cc1ccccc1)C(N)=O [Compound 1, apstatin] | 9.4 µM | 4.1 µM | pKi ([1]; in brackets in the IC50 cell of Table 2): 5.11; effect on binding of aminopeptidase P encoding phage to insolubilized CPGPEGAGC peptide (aminopeptidase P): blocked; pKi ([3]; Yoshimoto et al. 1994): 5.59
4 | NC(=O)C1CCCN1C(=O)C1CCCN1C(=O)C(O)C(N)Cc1ccccc1 (stereo not shown) [Compound 3] | 1300 µM | 390 µM | –
5 | CC(NC(=O)C1CCCN1C(=O)C1CCCN1C(=O)C(O)C(N)Cc1ccccc1)C(=O)NCCC(=O)NC(CS)C(N)=O (stereo not shown) [Compound 4] (X1-PPA[βAla]C-NH2; configuration not given here) | – | 0.66 µM | –
6 | CC(C)C[C@@H](N)[C@H](O)C(=O)N1CCC[C@H]1C(=O)N[C@@H](C)C(N)=O [Compound 5] | 4.5 µM | 0.56 µM | –
7 | CC(C)C[C@H](N)[C@@H](O)C(=O)N1CCC[C@H]1C(=O)N[C@@H](C)C(N)=O [Compound 6] | 2.1 µM | 0.31 µM | –
8 | CC(C)C[C@@H](N)[C@@H](O)C(=O)N1CCC[C@H]1C(=O)N[C@@H](C)C(N)=O [Compound 7] | 50 µM | 19 µM | –
9 | CC(C)C[C@H](N)[C@H](O)C(=O)N1CCC[C@H]1C(=O)N[C@@H](C)C(N)=O [Compound 8] | 470 µM | 100 µM | –
10 | CC(NC(=O)C1CCCN1C(=O)C1CCCC1S)C(N)=O (stereo not shown) [Compound 10] | – | 3.4 µM | IC50 [2]: 29 µM
11 | CPGPEGAGC (also: cyclized (mode not given here)) [breast homing cyclic peptide, synthesized, cyclized and purified by HPLC] | – | – | effect on binding of aminopeptidase P encoding phage to insolubilized CPGPEGAGC peptide (aminopeptidase P): blocked; effect of coinjection on recovery of CPGPEGAGC phage from breast tissue (breast tissue [5]; 0.5 ml of 2 mg/ml free peptide coinjected): markedly reduced; effect on breast homing / recovery of CRSS phage (breast tissue [5]; anti-aminopeptidase P antiserum or 1 mg free peptide): no effect; selective homing identified by in vivo panning (breast tissue [6]): selectively homing to breast tissue
12 | CRSS [CRSS (SEQ ID NO: 3)] | – | – | selective homing identified by in vivo panning (breast tissue [6]): selectively homing to breast tissue
13 | CRTS [CRTS (SEQ ID NO: 4)] | – | – | selective homing identified by in vivo panning (breast tissue [6]): selectively homing to breast tissue
14 | D(KLAKLAK)2 | – | – | mitochondrial swelling (mitochondrial membranes): marked mitochondrial swelling
